# Experimental data published in PubChem BioAssay AID248 (DTP/NCI, 2004).
# Values joined by “and” are separate entries in the source; they are usually repeats but may differ in a detail not shown here. Identical values can stand only once. Toxic doses and inconclusive results are not listed.
# Test system: L1210 leukemia ip in BDF1 mice, survival T/C
# Test: NCI In Vivo Anticancer Drug Screen. Data for tumor model L1210 Leukemia (intraperitoneal) in B6D2F1 (BDF1) mice
# Settings: endpoint: mean survival time, higher = longer survival
# Summary of the method: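 Tumor was transplanted into mice, which were then dosed with test compound or vehicle alone. Survival was recorded for each group, and the treated figure was expressed relative to the control figure.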
# [1] = dose: 100.0 mg/kg/injection, schedule: Q01DX001 (ip), vehicle: carboxymethylcellulose (CMC)
# [2] = dose: 100.0 mg/kg/injection, schedule: Q01DX001 (ip), vehicle: saline
# [3] = dose: 100.0 mg/kg/injection, schedule: Q04DX003 (ip), vehicle: saline
# [4] = dose: 200.0 mg/kg/injection, schedule: Q01DX001 (ip), vehicle: saline
# [5] = dose: 200.0 mg/kg/injection, schedule: Q04DX003 (ip), vehicle: saline
# [6] = dose: 400.0 mg/kg/injection, schedule: Q01DX001 (ip), vehicle: saline
# [7] = dose: 400.0 mg/kg/injection, schedule: Q04DX003 (ip), vehicle: saline
# [8] = dose: 200.0 mg/kg/injection, schedule: Q01DX001 (ip), vehicle: carboxymethylcellulose (CMC)
# [9] = dose: 400.0 mg/kg/injection, schedule: Q01DX001 (ip), vehicle: carboxymethylcellulose (CMC)
# [10] = dose: 100.0 mg/kg/injection, schedule: Q01DX009 (ip), vehicle: saline with Tween-80
# [11] = dose: 200.0 mg/kg/injection, schedule: Q01DX009 (ip), vehicle: saline with Tween-80
# [12] = dose: 400.0 mg/kg/injection, schedule: Q01DX009 (ip), vehicle: saline with Tween-80
smiles,measurement,setting,value
Cc1c(CNc2ccc(C(=O)NC(CC(=O)O)C(=O)O)cc2)ccc2nc(N)nc(N)c12 (centres undefined),T/C,"dose: 0.05 mg/kg/injection, schedule: Q01DX009 (ip), vehicle: other",122 % of control
same,T/C,"dose: 0.06 mg/kg/injection, schedule: Q01DX009 (ip), vehicle: other",117 % of control
same,T/C,"dose: 0.1 mg/kg/injection, schedule: Q01DX009 (ip), vehicle: carboxymethylcellulose (CMC)",94 % of control
same,T/C,"dose: 0.1 mg/kg/injection, schedule: Q01DX009 (ip), vehicle: other",152 % of control
same,T/C,"dose: 0.19 mg/kg/injection, schedule: Q01DX009 (ip), vehicle: other",115 % of control
same,T/C,"dose: 0.19 mg/kg/injection, schedule: Q01DX009 (ip), vehicle: water",175 % of control
same,T/C,"dose: 0.25 mg/kg/injection, schedule: Q01DX009 (ip), vehicle: other",101 % of control
same,T/C,"dose: 0.38 mg/kg/injection, schedule: Q01DX009 (ip), vehicle: other",102 % of control
same,T/C,"dose: 0.38 mg/kg/injection, schedule: Q01DX009 (ip), vehicle: water",116 % of control
same,T/C,"dose: 0.5 mg/kg/injection, schedule: Q02DX005 (ip), vehicle: water",205 % of control
same,T/C,"dose: 0.75 mg/kg/injection, schedule: Q01DX009 (ip), vehicle: carboxymethylcellulose (CMC)",91 % of control
same,T/C,"dose: 0.75 mg/kg/injection, schedule: Q01DX009 (ip), vehicle: water",94 % of control
same,T/C,"dose: 1.0 mg/kg/injection, schedule: Q02DX005 (ip), vehicle: water",158 % of control
same,T/C,"dose: 1.5 mg/kg/injection, schedule: Q01DX009 (ip), vehicle: water",98 % of control
same,T/C,"dose: 1.56 mg/kg/injection, schedule: Q01DX001 (ip), vehicle: other",124 % of control
same,T/C,"dose: 1.69 mg/kg/injection, schedule: Q04DX003 (ip), vehicle: water",167 % of control
same,T/C,"dose: 3.0 mg/kg/injection, schedule: Q01DX009 (ip), vehicle: water",97 % of control
same,T/C,"dose: 3.38 mg/kg/injection, schedule: Q04DX003 (ip), vehicle: water",173 % of control
same,T/C,"dose: 4.0 mg/kg/injection, schedule: Q02DX005 (ip), vehicle: water",118 % of control
same,T/C,"dose: 6.75 mg/kg/injection, schedule: Q04DX003 (ip), vehicle: water",195 % of control
same,T/C,"dose: 8.0 mg/kg/injection, schedule: Q02DX005 (ip), vehicle: water",89 % of control
same,T/C,"dose: 12.5 mg/kg/injection, schedule: Q01DX001 (ip), vehicle: other",159 % of control
same,T/C,"dose: 13.5 mg/kg/injection, schedule: Q04DX003 (ip), vehicle: water",224 % of control
same,T/C,"dose: 25.0 mg/kg/injection, schedule: Q01DX001 (ip), vehicle: carboxymethylcellulose (CMC)",98 % of control
same,T/C,"dose: 25.0 mg/kg/injection, schedule: Q01DX001 (ip), vehicle: other",98 % of control
same,T/C,"dose: 27.0 mg/kg/injection, schedule: Q04DX003 (ip), vehicle: water",119 % of control
same,T/C,"dose: 50.0 mg/kg/injection, schedule: Q01DX001 (ip), vehicle: carboxymethylcellulose (CMC)",155 % of control
same,T/C,[1],158 % of control
OC1CC2C3CCC(C3)C2C1O (centres undefined),T/C,"dose: 100.0 mg/kg/injection, schedule: Q04DX003 (ip), vehicle: saline with Tween-80",106 % of control
same,T/C,"dose: 200.0 mg/kg/injection, schedule: Q04DX003 (ip), vehicle: saline with Tween-80",90 % of control
CC(C)(C)C(=O)CN,T/C,[2],116 % of control
same,T/C,"dose: 100.0 mg/kg/injection, schedule: Q01DX009 (ip), vehicle: saline",101 % of control and 104 % of control
same,T/C,[3],101 % of control
same,T/C,[4],119 % of control
same,T/C,"dose: 200.0 mg/kg/injection, schedule: Q01DX009 (ip), vehicle: saline",93 % of control and 97 % of control
same,T/C,[5],109 % of control
same,T/C,[6],122 % of control
same,T/C,"dose: 400.0 mg/kg/injection, schedule: Q01DX009 (ip), vehicle: saline",101 % of control
same,T/C,[7],93 % of control
O=C(Nc1ccccc1C(=O)N/N=C/CCc1ccccc1)c1ccccc1Cl,T/C,"dose: 100.0 mg/kg/injection, schedule: Q01DX009 (ip), vehicle: Klucel (hydroxypropylcellulose) (HPC)",101 % of control
same,T/C,"dose: 200.0 mg/kg/injection, schedule: Q01DX009 (ip), vehicle: Klucel (hydroxypropylcellulose) (HPC)",97 % of control
same,T/C,"dose: 400.0 mg/kg/injection, schedule: Q01DX009 (ip), vehicle: Klucel (hydroxypropylcellulose) (HPC)",92 % of control
CC(Br)c1ccc2c(c1)Cc1ccccc1-2 (centres undefined),T/C,[1],97 % of control
same,T/C,[8],89 % of control
same,T/C,[9],97 % of control
Cc1ccc(S(=O)(=O)Nc2ccc(OS(=O)(=O)c3ccc(C)cc3)cc2)cc1,T/C,[1],108 % of control
same,T/C,[8],100 % of control
same,T/C,[9],100 % of control
c1ccc(Nc2nnnn2C2CCCCC2)cc1,T/C,"dose: 100.0 mg/kg/injection, schedule: Q01DX001 (ip), vehicle: saline with Tween-80",104 % of control
same,T/C,"dose: 200.0 mg/kg/injection, schedule: Q01DX001 (ip), vehicle: saline with Tween-80",95 % of control
same,T/C,"dose: 400.0 mg/kg/injection, schedule: Q01DX001 (ip), vehicle: saline with Tween-80",93 % of control
CCN(CC)CCOC(=O)C(c1ccccc1)c1ccccc1,T/C,"dose: 75.0 mg/kg/injection, schedule: Q01DX001 (ip), vehicle: saline",104 % of control
same,T/C,"dose: 150.0 mg/kg/injection, schedule: Q01DX001 (ip), vehicle: saline",94 % of control
CC(CO)(CO)N=Cc1ccc(N(CCCl)CCCl)cc1,T/C,[1],106 % of control
same,T/C,[8],97 % of control
same,T/C,[9],101 % of control
O=S(=O)(C1=C(c2ccccc2)CCCC1)c1ccccc1,T/C,"dose: 100.0 mg/kg/injection, schedule: Q01DX009 (ip), vehicle: acetone",104 % of control
Cc1c2ccccc2c(CSCCC(N)C(=O)O)c2ccccc12 (centres undefined),T/C,[10],89 % of control
same,T/C,[11],91 % of control
same,T/C,[12],110 % of control
Nc1nc(N)c(-c2ccc(Cl)cc2)c(CO)n1,T/C,[2],93 % of control
same,T/C,[4],104 % of control
same,T/C,[6],95 % of control
C=C1C(=O)OC2CC(C)C3CC(=O)C(C)=C3C(O)C12 (centres undefined),T/C,"dose: 25.0 mg/kg/injection, schedule: Q01DX009 (ip), vehicle: saline",94 % of control
same,T/C,"dose: 50.0 mg/kg/injection, schedule: Q01DX009 (ip), vehicle: saline",98 % of control
CCCCCCCC/C=C\CCCCCCCC(=O)O.[Cu+2],T/C,[2],105 % of control
same,T/C,[4],96 % of control
CCOC(=O)/C(C#N)=C\c1cc(=O)c(OC)co1,T/C,[3],98 % of control
same,T/C,[5],104 % of control
same,T/C,[7],102 % of control
c1ccc2c(c1)-c1ccccc1[Si]21c2ccccc2-c2ccccc21,T/C,[10],97 % of control
same,T/C,[11],92 % of control
same,T/C,[12],91 % of control
COc1ccc2c(c1)CSC(c1ccccc1)C2=O (centres undefined),T/C,"dose: 100.0 mg/kg/injection, schedule: Q04DX002 (ip), vehicle: Klucel (hydroxypropylcellulose) (HPC)",105 % of control
same,T/C,"dose: 200.0 mg/kg/injection, schedule: Q04DX002 (ip), vehicle: Klucel (hydroxypropylcellulose) (HPC)",97 % of control
same,T/C,"dose: 400.0 mg/kg/injection, schedule: Q04DX002 (ip), vehicle: Klucel (hydroxypropylcellulose) (HPC)",90 % of control
Nc1nc(N)c(-c2ccc(Cl)c(Cl)c2)c(/C=C/C=C/c2cccnc2)n1,T/C,"dose: 16.7 mg/kg/injection, schedule: Q01DX009 (ip), vehicle: saline with Tween-80",112 % of control
same,T/C,"dose: 37.5 mg/kg/injection, schedule: Q01DX009 (ip), vehicle: saline with Tween-80",86 % of control
c1ccc2c(c1)CCN(C1=NCCO1)C2,T/C,"dose: 9.5 mg/kg/injection, schedule: Q01DX001 (ip), vehicle: saline",112 % of control
same,T/C,"dose: 10.0 mg/kg/injection, schedule: Q04DX003 (ip), vehicle: saline",97 % of control
same,T/C,"dose: 19.0 mg/kg/injection, schedule: Q01DX001 (ip), vehicle: saline",100 % of control
same,T/C,"dose: 20.0 mg/kg/injection, schedule: Q04DX003 (ip), vehicle: saline",94 % of control
same,T/C,"dose: 38.0 mg/kg/injection, schedule: Q01DX001 (ip), vehicle: saline",101 % of control
same,T/C,"dose: 40.0 mg/kg/injection, schedule: Q04DX003 (ip), vehicle: saline",90 % of control
